Measurements: PubChem BioAssay AID256 (DTP/NCI, 2004)
Toxic doses and inconclusive results are not listed. How the source made its calls: active means survival T/C of 150% or more; inactive means T/C below 125% in these data.

System: CD2F1 mice, L1210 leukemia ip, survival T/C
Experiment: NCI In Vivo Anticancer Drug Screen. Data for tumor model L1210 Leukemia (intraperitoneal) in CD2F1 (CDF1) mice
Details: higher = longer survival
Summary of the method: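 Tumor-bearing mice (transplanted tumor) were split into treated and vehicle control groups, and the measured endpoint of each treated group was divided by that of its vehicle controls.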

[1] = endpoint: mean survival time, dose: 50.0 mg/kg/injection, schedule: Q01DX009 (ip), vehicle: saline with Tween-80
[2] = endpoint: mean survival time, dose: 100.0 mg/kg/injection, schedule: Q01DX009 (ip), vehicle: saline with Tween-80
[3] = endpoint: mean survival time, dose: 100.0 mg/kg/injection, schedule: Q04DX003 (ip), vehicle: saline with Tween-80
[4] = endpoint: mean survival time, dose: 200.0 mg/kg/injection, schedule: Q04DX003 (ip), vehicle: saline with Tween-80
[5] = endpoint: mean survival time, dose: 400.0 mg/kg/injection, schedule: Q04DX003 (ip), vehicle: saline with Tween-80
[6] = endpoint: mean survival time, dose: 200.0 mg/kg/injection, schedule: Q01DX009 (ip), vehicle: saline with Tween-80

Measured: T/C

CCOc1cc(/C=N/NC(=O)C[n+]2ccccc2)ccc1O
inactive: endpoint: mean survival time, dose: 25.0 mg/kg/injection, schedule: Q01DX009 (ip), vehicle: saline with Tween-80 99 % of control | [1] 103 % of control | [2] 99 % of control

COC12CC3C4CCC5CC(O)CCC5(C)C4CCC3(C)C1C(C)C1(CCC(C)CO1)O2 (stereo not drawn)
inactive: [3] 100 % of control | [4] 96 % of control | [5] 92 % of control

N#CC(C#N)=NNc1ccc(S(=O)(=O)c2ccc(NN=C(C#N)C#N)cc2)cc1
inactive: [2] 103 % of control | [6] 100 % of control | endpoint: mean survival time, dose: 400.0 mg/kg/injection, schedule: Q01DX009 (ip), vehicle: saline with Tween-80 103 % of control

NC/C(=N\Nc1ccc([N+](=O)[O-])cc1[N+](=O)[O-])c1ccccc1
inactive: endpoint: mean survival time, dose: 100.0 mg/kg/injection, schedule: Q04DX003 (ip), vehicle: saline 103 % of control | endpoint: mean survival time, dose: 200.0 mg/kg/injection, schedule: Q04DX003 (ip), vehicle: saline 100 % of control | endpoint: mean survival time, dose: 400.0 mg/kg/injection, schedule: Q04DX003 (ip), vehicle: saline 97 % of control

Nc1ccc(Nc2c3ccccc3nc3ccccc23)cc1
inactive: endpoint: mean survival time, dose: 6.25 mg/kg/injection, schedule: Q04DX003 (ip), vehicle: saline 101 % of control | endpoint: mean survival time, dose: 12.5 mg/kg/injection, schedule: Q04DX003 (ip), vehicle: saline 111 % of control | endpoint: mean survival time, dose: 25.0 mg/kg/injection, schedule: Q04DX003 (ip), vehicle: saline 114 % of control

C[CH2][Sn]([F])([CH2]C)[CH2]C
inactive: endpoint: mean survival time, dose: 0.37 mg/kg/injection, schedule: Q01DX009 (ip), vehicle: saline with Tween-80 98 % of control | endpoint: mean survival time, dose: 0.75 mg/kg/injection, schedule: Q01DX009 (ip), vehicle: saline with Tween-80 101 % of control | endpoint: mean survival time, dose: 1.5 mg/kg/injection, schedule: Q01DX009 (ip), vehicle: saline with Tween-80 104 % of control | endpoint: mean survival time, dose: 3.0 mg/kg/injection, schedule: Q01DX009 (ip), vehicle: saline with Tween-80 102 % of control | endpoint: mean survival time, dose: 6.0 mg/kg/injection, schedule: Q01DX009 (ip), vehicle: saline with Tween-80 98 % of control

CCO[Si](C)(OCC)OCC
inactive: endpoint: mean survival time, dose: 50.0 mg/kg/injection, schedule: Q01DX009 (ip), vehicle: saline 101 % of control | endpoint: mean survival time, dose: 100.0 mg/kg/injection, schedule: Q01DX009 (ip), vehicle: saline 101 % of control | endpoint: mean survival time, dose: 200.0 mg/kg/injection, schedule: Q01DX009 (ip), vehicle: saline 96 % of control

CCCCCCCCCCCCCCCC(=O)Nc1ccc2c(c1)[nH]c(=O)c1cc(NC(=O)CCCCCCCCCCCCCCC)ccc12
inactive: endpoint: mean survival time, dose: 100.0 mg/kg/injection, schedule: Q04DX002 (ip), vehicle: saline with Tween-80 98 % of control | endpoint: mean survival time, dose: 200.0 mg/kg/injection, schedule: Q04DX002 (ip), vehicle: saline with Tween-80 111 % of control | endpoint: mean survival time, dose: 400.0 mg/kg/injection, schedule: Q04DX002 (ip), vehicle: saline with Tween-80 102 % of control

OCC1OC(n2cnc3c(Cl)nccc32)C(O)C1O (stereo not drawn)
inactive: endpoint: median survival time, dose: 9.63 mg/kg/injection, schedule: Q01DX005 (ip), vehicle: saline 100 % of control | endpoint: median survival time, dose: 19.25 mg/kg/injection, schedule: Q01DX005 (ip), vehicle: saline 104 % of control | endpoint: median survival time, dose: 38.5 mg/kg/injection, schedule: Q01DX005 (ip), vehicle: saline 94 % of control | endpoint: median survival time, dose: 77.0 mg/kg/injection, schedule: Q01DX005 (ip), vehicle: saline 108 % of control | endpoint: median survival time, dose: 154.0 mg/kg/injection, schedule: Q01DX005 (ip), vehicle: saline 101 % of control

CC1=NN(c2cccc(S(=O)(=O)O)c2)C(=O)C1Cl (stereo not drawn)
inactive: [1] 98 % of control | [2] 95 % of control | [6] 95 % of control

Nc1c(Cl)cc(Cl)cc1C(=O)O
inactive: endpoint: mean survival time, dose: 100.0 mg/kg/injection, schedule: Q01DX001 (ip), vehicle: saline 102 % of control | endpoint: mean survival time, dose: 200.0 mg/kg/injection, schedule: Q01DX001 (ip), vehicle: saline 100 % of control | endpoint: mean survival time, dose: 400.0 mg/kg/injection, schedule: Q01DX001 (ip), vehicle: saline 104 % of control

O=[N+]([O-])c1ccc(CS(=O)(=O)O)cc1
inactive: endpoint: mean survival time, dose: 100.0 mg/kg/injection, schedule: Q04DX002 (ip), vehicle: saline 104 % of control | endpoint: mean survival time, dose: 200.0 mg/kg/injection, schedule: Q04DX002 (ip), vehicle: saline 96 % of control | endpoint: mean survival time, dose: 400.0 mg/kg/injection, schedule: Q04DX002 (ip), vehicle: saline 96 % of control

Cc1ccc(S(=O)(=O)/C=C(\Cl)S(=O)(=O)C(C)(C)C)cc1
inactive: endpoint: mean survival time, dose: 25.0 mg/kg/injection, schedule: Q01DX001 (ip), vehicle: saline with Tween-80 93 % of control | endpoint: mean survival time, dose: 50.0 mg/kg/injection, schedule: Q01DX001 (ip), vehicle: saline with Tween-80 104 % of control

Cc1ccc([N+](=O)[O-])cc1NC(=O)SCCOC(=O)COc1ccc(Cl)cc1
inactive: [3] 98 % of control | [4] 96 % of control | [5] 98 % of control

C=C(C)CS(=O)[O-].[C-]#[O+].[C-]#[O+].[Fe+6].[c-]1[c-][c-][cH-][c-]1
inactive: endpoint: mean survival time, dose: 6.25 mg/kg/injection, schedule: Q04DX002 (ip), vehicle: saline 97 % of control | endpoint: mean survival time, dose: 12.5 mg/kg/injection, schedule: Q04DX002 (ip), vehicle: saline 97 % of control | endpoint: mean survival time, dose: 25.0 mg/kg/injection, schedule: Q04DX002 (ip), vehicle: saline 97 % of control
